Data on six molecules can be found in patent publication US9527859B2, “Amidopyridine derivative and use thereof” (Mitsubishi Tanabe Pharma Corporation, priority 2012, dated 2016).

Usually IC50 stands for the concentration that inhibits the measured activity by half.

The subject of data set [1] is HepG2 cells. Put plainly: Evaluation of hepatocyte cytotoxicity using HepG2 cells (CellTiter-Glo). The format is cell-based, human. The note with it: for Survival rate (%): cell survival rate. Here is the method:
Evaluation of Hepatocyte Cytotoxicity Using HepG2 Cells
A culture solution was prepared by adding 10% Fetal Bovine Serum (FBS: treated to be inactivated under the condition of 56° C., 30 minutes, Invitrogen, 10082-147), 0.1 mM Non-Essential Amino Acids (NEAA: Invitrogen, 11140-050), 1 mM sodium pyruvate (PyNa: Invitrogen, 11360-070) to Eagle's MEM medium (Invitrogen, 11875-093) and was used after warming to 37° C. before using.
HepG2 cell line (DS Pharma Biomedical) derived from human hepatoma in logarithmic growth phase were used. The number of cells subjected to subculturing was 1 to 5×10^6 cell/15 mL in a 75 cm^2 cultivation flask, and cells were subcultured about every 1 week depending on the condition of cells. In subculturing, cells were rinsed with D-PBS (−) (invitrogen, 14190-144) (10 mL), then thereto was added 0.25% Trypsin-1 mM EDTA (Invitrogen, 25200-056) (1 mL), and the mixture was treated for 10 minutes (37° C., 5% CO2), then thereto was added culture solution (9 mL), and the mixture was collected and centrifuged (1000 rpm×5 minutes, 4° C.). The number of cells were counted by dyeing with 0.4% trypan blue solution (Invitrogen, 15250-061), and then cells were diluted with culture solution to be a specific number of cells and incubated under the condition of 37° C., 5% CO2.
As to a cell seeding, HepG2 cells which were incubated in a 75 cm^2 flask were rinsed with D-PBS (−) (10 mL), and then thereto was added 0.25% Trypsin-1 mM EDTA (1 mL), and the mixture was treated for 10 minutes (37° C., 5% CO2). Thereto was added additional culture solution (9 mL), and the mixture was collected in a 50 mL centrifuge tube to be centrifuged (1000 rpm×5 minutes, 4° C.). A supernatant was removed, and the residual cells were suspended by additional culture solution and sufficiently single-celled by pipetting. After dyeing with 0.4% trypan blue, the number of cells were counted by using a cell counting chamber, and a suspended cell was prepared in a specified cell density (In case of 24-hour exposure: 1×10^5, in case of 48-hour exposure: 5×10^4 cells/mL). The 100 μL of cell suspension was added per 1 well (n=3, 24 hours: 1×10^4, 48 hours: 5×10^3 cells/100 μL/well) of 96 well Clear bottom black microplate (Corning, 3603), and then the mixture was pre-incubated for about 24 hours under the condition of 37° C., 5% CO2.
Stock solutions of test compounds were prepared in a 200-fold concentration of the desired maximum concentration to be homogenized with optional ultrasonication. These stock solutions were preserved at −20° C. Before using, a stock solution was thawed, and diluted with DMSO to be concentrations of 20 mM to 20 μM (common ratio of 3, 7 concentrations in total), and then it was diluted with culture solution in 100-fold to prepare a culture solution containing test compounds in a 2-fold concentration. Thus, the upper limit of the final concentration of DMSO in culture solution was in principle 0.5% (v/v).
A vehicle control group and a positive control group were set with each measurement plate. Chlorpromazine (Wako Pure Chemical Industries, Ltd., 033-10581) was used as a positive control agent (final concentration 24 hours: 20 μM, 48 hours: 15 μM). 20 mM stock solution was thawed, and then diluted with culture solution, and chlorpromazine-containing culture solution was prepared in 2-fold concentration.
As to the treatment of test compounds, a culture solution (100 μL) containing a test compound or a positive control agent and a culture solution (100 μL) containing vehicle were added to each specified well. A culture solution (200 μL) was added to blank (without cells) well. Thus, total amounts of culture solution of each well were 200 μL, and the final concentration of test compounds was 100 μM to 0.1 μM (common ratio of 3, 7 concentrations in total).
Incubation was carried out under the condition of 37° C., 5% CO2 for 24 or 48 hours. […]
Background: Cellular ATP, detected with luciferase, serves as a proxy for viable cell number.

The test system of data set [2] is production of IL-17 in mouse splenocytes stimulated by recombinant mouse interleukin-23. Put plainly: Production of IL-17 induced when mouse splenocytes were stimulated by rm-IL-23 (ELISA). The format is cell-based. The note with it: Splenocyte, inhibition of IL-17 production, rm-IL-23 1 nmol/L, 72 hours. As for the experimental part: Effect on Production of IL-17 Induced when Mouse Splenocytes were Stimulated by Recombinant Mouse Interleukin-23 (rm-IL-23)
RPMI1640 media (Sigma-Aldrich) were used as a medium, to which 50 units/mL penicillin G potassium/50 μg/mL streptomycin (Gibco) and […] 2-mercaptoethanol (Sigma-Aldrich) were added, and then thereto was added 10% of fetal calf serum (FCS; Cell Culture Technology) which was treated at 56° C. for 30 minutes to be inactivated, and the mixture was used in the Test. The test compound was dissolved in dimethylsulfoxide and then diluted with 10% FCS-containing RPMI1640 medium to a desired concentration to be used. The spleens were aseptically taken out from 6 to 7 week-old male DBA/1J mice (Charles River Japan, Inc.) and a single cell suspension of splenocytes was prepared, which was hemolyzed by hypotonic treatment with a mixed solution of 0.83% aqueous solution of ammonium chloride and Tris-HCl buffer of pH 7.65 (9:1). A cell suspension prepared by using 10% FCS-containing RPMI1640 medium was added to a flat-bottomed 96 well microtestplate (Coaster) at 2×10^5 cells/well. Thereto were added test compounds and rm-IL-23 (R&D systems) were diluted with a medium to 1 to 1,000 nmol/L and 1 nmol/L of the final concentration, respectively, and the mixture was cultured at 37° C., 5% carbon dioxide and 95% air for 72 hours. After completion of the culture, culture supernatant was sampled and production amounts of IL-17 therein were determined by ELISA method. After sampling the supernatant, WST-8 (Seikagaku Corporation) was added at 10 μl/well and cultured at 37° C., 5% carbon dioxide and 95% air for 4 hours. Then, absorbance (O.D.: Optical Density) at 450 nm was measured by a microplate reader and the value was adopted as an index of cell survivability. An inhibition rate was calculated according to the following formula on the basis of an average of production amounts of IL-17 and O.D. values of the well containing a test compound of each concentration. Inhibition (%)=(1−(Average value of well with addition of test compound)/(Average value of well without addition of test compound))×100
Based on the dose-response curve obtained by plotting the inhibition rate in the longitudinal axis and the concentration in the horizontal axis, the concentration of the compound which inhibits the level to 50% of the value of the control group (IC50) (nmol/L) was determined by linear regression analysis.

In the case of `Cc1c(C(=O)Nc2cnc(N3CCC(O)CC3)c(C3CC3)c2)cnn1-c1ccc(Cl)cc1` [Example 39, 1-(4-chlorophenyl)-N-[5-cyclopropyl-6-(4-hydroxypiperidin-1-yl)pyridin-3-yl]-5-methyl-1H-pyrazole-4-carboxamide], in data set [1], the Cell survival rate came out at 65.8% and the “Survival rate (%)” value came out at 107.1%. In addition, in data set [2], the IC50 is 136 nM.
`Cc1cc(NC(=O)c2cnn(-c3ccc(Cl)cc3)c2C)cnc1N1CCC(O)CC1` [Example 43, 1-(4-chlorophenyl)-N-[6-(4-hydroxypiperidin-1-yl)-5-methylpyridin-3-yl]-5-methyl-1H-pyrazole-4-carboxamide]: in data set [1], the “Survival rate (%)” value is listed as 117.8%. For the same molecule, the IC50 in data set [2] is 102 nM.
Turning to `Cc1c(C(=O)Nc2cnc(N3CCC(O)CC3)c(C#N)c2)cnn1-c1ccc(Cl)cc1` [Example 44, 1-(4-chlorophenyl)-N-[5-cyano-6-(4-hydroxypiperidin-1-yl)pyridin-3-yl]-5-methyl-1H-pyrazole-4-carboxamide], in data set [1], the “Survival rate (%)” value is given as 95.8%. Further, the 50% inhibitory concentration (IC50) in data set [2] amounted to 74.9 nM.
As for `Cc1c(C(=O)Nc2cnc(N3CCC(O)CC3)c(C#N)c2)cnn1-c1ccc(C(F)(F)F)cc1` [Example 45, N-[5-cyano-6-(4-hydroxypiperidin-1-yl)pyridin-3-yl]-5-methyl-1-[4-(trifluoromethyl)phenyl]-1H-pyrazole-4-carboxamide], in data set [1], the “Survival rate (%)” value is listed as 92.5%. For the same molecule, in data set [2], the half-inhibitory concentration (IC50) was 72.5 nM.
For `Cc1cc(NC(=O)c2cnn(-c3ccc(C(F)(F)F)cc3)c2C)cnc1N1CCC(C(C)(C)F)CC1` [Example 47, N-{6-[4-(1-fluoro-1-methylethyl)piperidin-1-yl]-5-methylpyridin-3-yl}-5-methyl-1-[4-(trifluoromethyl)phenyl]-1H-pyrazole-4-carboxamide] the same measures were 99.8% and 57.9 nM.
For `Cc1cc(NC(=O)c2cnn(-c3ccc(C(F)(F)F)cn3)c2C)cnc1N1CCC(C(C)(C)F)CC1` [Example 49, N-{6-[4-(1-fluoro-1-methylethyl)piperidin-1-yl]-5-methylpyridin-3-yl}-5-methyl-1-[5-(trifluoromethyl)pyridin-2-yl]-1H-pyrazole-4-carboxamide], the “Survival rate (%)” value in data set [1] worked out at 102.3%. In data set [2], the concentration for half-maximal inhibition (IC50) is 54.7 nM.
